Results published in BindingDB's records for PubMed 2968449 (Squibb Institute For Medical Research, 1988).
Values joined by “and” are separate entries in the source; they are usually repeats but may differ in a detail not shown here. Equal entries are not always repeated.

Biological target: T1, Thromboxane A2 receptor (Homo sapiens, UniProt P21731)
T1 sequence (P21731 whole entry): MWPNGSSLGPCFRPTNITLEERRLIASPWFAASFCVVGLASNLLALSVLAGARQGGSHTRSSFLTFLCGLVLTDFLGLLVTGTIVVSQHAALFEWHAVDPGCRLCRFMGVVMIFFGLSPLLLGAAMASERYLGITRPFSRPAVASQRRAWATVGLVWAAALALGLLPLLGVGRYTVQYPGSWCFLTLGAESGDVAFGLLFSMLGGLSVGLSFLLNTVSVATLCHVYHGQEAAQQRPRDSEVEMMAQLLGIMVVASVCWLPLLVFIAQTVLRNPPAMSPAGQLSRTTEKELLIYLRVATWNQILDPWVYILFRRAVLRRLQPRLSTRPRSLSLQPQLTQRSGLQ

Row | Ki | Compound
1 | 49.6 nM and 28.3 nM | CCCCCCC(=O)NCC(=O)NCC1C2CCC(O2)C1CC=CCCCC(=O)O (centres undefined) [CAS_119571]
2 | 7.1 nM and 4.4 nM | CCCCCC(O)C=CC1C2COC(C2)C1CC=CCCCC(=O)O (centres undefined) [NSC_114865]
3 | 72.7 nM and 31.8 nM | CC(c1ccccc1)C(O)C=CC1C2CCC(O2)C1CC=CCCCC(=O)O (centres undefined) [NSC_3036123]
4 | 18.7 nM and 3.6 nM | CCCCC[C@H](O)/C=C/C1[C@@H](C/C=C\CCCC(=O)O)[C@H]2CO[C@@H]1C2 (some centres undefined) [U46619]
